Source: ChEMBL document CHEMBL5608184, “Discovery and mechanistic insights into thieno[3,2-d]pyrimidine and heterocyclic fused pyrimidines inhibitors targeting tubulin for cancer therapy” (Eur J Med Chem, 2024)
pIC50, pKd: −log10 of the molar value. Active and inactive are the calls of the source. No cut-off for these calls is given here.

What was measured:
A2780 = test: Antiproliferative activity against human A2780 cells incubated for 48 hrs by CCK8 assay; assay type: functional, cell-based; details: A2780, 48 h
HCC827 = test: Antiproliferative activity against human HCC827 cells incubated for 48 hrs by CCK8 assay; assay type: functional, cell-based; details: HCC827, 48 h
A549 = test: cells; details: Homo sapiens, A549, 48 h
Description: Antiproliferative activity against human A549 cells incubated for 48 hrs by CCK8 assay

SK-OV-3 [1] = test: Antiproliferative activity against human SK-OV-3 cells incubated for 48 hrs by CCK8 assay; assay type: functional, cell-based; details: SK-OV-3, 48 h
Tubulin (Homo sapiens) = Tubulin (Homo sapiens) (UniProt P68371+Q9H4B7+P0DPH7+P68366+Q13509+Q71U36+P04350+Q3ZCM7+P07437+P68363+Q9BQE3+Q6PEY2+Q13885+Q9BVA1+Q9BUF5); test: Inhibition of tubulin polymerization in human SK-OV-3 assessed as disruption of microtubule organization at 2 nM incubated for 24 hrs by immunofluorescence based analysis; assay type: cell-based
[2] = Antiproliferative activity against Paclitaxel-resistant human A2780 cells incubated for 48 hrs by CCK8 assay; assay type: functional, cell-based; details: Paclitaxel-resistant A2780, 48 h
Sus scrofa = species: Sus scrofa; test: Inhibition of porcine brain tubulin polymerization at 10 uM measured for 60 min by fluorescence based assay
SK-OV-3 [3] = test: Induction of cell cycle arrest at G2/M phase in human SK-OV-3 cells at 5 nM incubated for 24 hrs by PI staining based flow cytometry (reference value: 30.13 %); assay type: functional
SK-OV-3 [4] = test: Induction of apoptosis in human SK-OV-3 cells assessed as late apoptotic cells at 5 nM incubated for 48 hrs by Annexin V-APC-A/7-AAD-A staining based flow cytometry (reference value: 1.20 %); assay type: functional
SK-OV-3 [5] = test: Induction of apoptosis in human SK-OV-3 cells assessed as necrotic cells at 5 nM incubated for 48 hrs by Annexin V-APC-A/7-AAD-A staining based flow cytometry (reference value: 0.48 %); assay type: functional
SK-OV-3 [6] = test: Induction of cell cycle arrest at G2/M phase in human SK-OV-3 cells at 5 nM incubated for 24 hrs by PI staining based flow cytometry (reference value: 29.73 %); assay type: functional
SK-OV-3 [7] = test: Induction of apoptosis in human SK-OV-3 cells assessed as early apoptotic cells at 5 nM incubated for 48 hrs by Annexin V-APC-A/7-AAD-A staining based flow cytometry (reference value: 1.12 %); assay type: functional
SK-OV-3 [8] = test: Induction of apoptosis in human SK-OV-3 cells assessed as early apoptotic cells at 5 nM incubated for 48 hrs by Annexin V-APC-A/7-AAD-A staining based flow cytometry (reference value: 1.10 %); assay type: functional
SK-OV-3 [9] = test: Induction of apoptosis in human SK-OV-3 cells assessed as viable cells at 5 nM incubated for 48 hrs by Annexin V-APC-A/7-AAD-A staining based flow cytometry (reference value: 97.17 %); assay type: functional; details: read-out: Activity
SK-OV-3 [10] = test: Induction of apoptosis in human SK-OV-3 cells assessed as necrotic cells at 5 nM incubated for 48 hrs by Annexin V-APC-A/7-AAD-A staining based flow cytometry (reference value: 0.21 %); assay type: functional
SK-OV-3 [11] = test: Induction of apoptosis in human SK-OV-3 cells assessed as viable cells at 5 nM incubated for 48 hrs by Annexin V-APC-A/7-AAD-A staining based flow cytometry (reference value: 97.50 %); assay type: functional; details: read-out: Activity
SK-OV-3 [12] = test: Induction of apoptosis in human SK-OV-3 cells assessed as late apoptotic cells at 5 nM incubated for 48 hrs by Annexin V-APC-A/7-AAD-A staining based flow cytometry (reference value: 1.22 %); assay type: functional
Tubulin = test: Binding affinity to CM5-chip immobilized tubulin (unknown origin) assessed as dissociation constant by SPR analysis; assay type: protein-complex assay, Homo sapiens

Row | pIC50 (A2780) | pIC50 (HCC827) | pIC50 (A549) | pIC50 (SK-OV-3 [1]) | Structure (SMILES) | other results
1 | 8.96 | 8.90 | 8.89 | 9.11 | COc1ccc(N(C)c2nc(Cl)nc3ccccc23)cc1 | –
2 | 6.65 | 6.89 | 6.54 | 7.29 | COc1ccc(N(C)c2nc(N(C)C)nc3ccsc23)cc1 | –
3 | < 6.00 | < 6.00 | < 6.00 | < 6.00 | CN(c1ccc(F)cc1)c1nc(Cl)nc2ccsc12 | –
4 | 7.52 | 7.70 | 7.14 | 7.60 | COc1ccc(N(C)c2nc(NC3CC3)nc3ccsc23)cc1 | –
5 | 8.50 | 8.78 | 8.59 | 8.69 | COc1ccc(N(C)c2nc(Cl)nc3ccsc23)cc1F | –
6 | < 6.00 | < 6.00 | < 6.00 | < 6.00 | COc1ccc(N(C)c2nc(NC3CCCCC3)nc3ccsc23)cc1 | –
7 | 7.11 | 7.31 | 7.06 | 7.35 | COc1ccc(N(C)c2ncnc3ccsc23)cc1 | –
8 | < 6.00 | < 6.00 | < 6.00 | < 6.00 | COc1ccc(N(C)c2nc(N3CCCC3)nc3ccsc23)cc1 | –
9 | 8.20 | 8.33 | 8.04 | 8.54 | COc1ccc(N(C)c2nc(Cl)nc3ccoc23)cc1 | –
10 | 6.51 | 6.64 | 6.16 | 7.23 | COc1ccc(N(C)c2nc(N3CCC3)nc3ccsc23)cc1 | –
11 | 7.29 | 7.50 | 6.80 | 7.28 | CCNc1nc(N(C)c2ccc(OC)cc2)c2sccc2n1 | –
12 | < 6.00 | < 6.00 | < 6.00 | < 6.00 | CN(c1ccc(C(F)F)cc1)c1nc(Cl)nc2ccsc12 | –
13 | 7.21 | 7.68 | 6.68 | 7.46 | COc1ccc(N(C)c2nc(N)nc3ccsc23)cc1 | –
14 | < 6.00 | < 6.00 | < 6.00 | < 6.00 | COc1ccc2c(c1)CCN2c1nc(Cl)nc2ccsc12 | –
15 | 7.51 | 7.53 | 7.11 | 7.42 | COc1ccc(Sc2nc(Cl)nc3ccsc23)cc1 | –
16 | 7.55 | 7.70 | 7.56 | 7.85 | Cc1nn(C)c2ccc(N(C)c3nc(Cl)nc4ccsc34)cc12 | –
17 | 8.88 | 8.90 | 8.51 | 8.92 | CC(=O)O[C@H]1C(=O)[C@@]2(C)[C@H]([C@H](OC(=O)c3ccccc3)[C@]3(O)C[C@H](OC(=O)[C@H](O)[C@@H](NC(=O)c4ccccc4)c4ccccc4)C(C)=C1C3(C)C)[C@]1(OC(C)=O)CO[C@@H]1C[C@@H]2O [PACLITAXEL] | inhibition (Tubulin (Homo sapiens)): inactive; pIC50 [2]: 5.42; inhibition (Sus scrofa): inactive
18 | 8.81 | 8.81 | 8.76 | 8.91 | CN(c1ccc2c(ccn2C)c1)c1nc(Cl)nc2ccsc12 | –
19 | < 6.00 | < 6.00 | < 6.00 | 6.13 | COc1ccc(N(C)c2nc(NC3CCCC3)nc3ccsc23)cc1 | –

Row | pIC50 (A2780) | pIC50 (HCC827) | pIC50 (A549) | pIC50 (SK-OV-3 [1]) | Structure (SMILES) | other results
20 | 6.39 | 6.51 | 6.20 | 6.77 | CN(c1ccc2c(c1)OCO2)c1nc(Cl)nc2ccsc12 | –
21 | 6.19 | 6.37 | 6.10 | 6.58 | COc1cc(OC)cc(N(C)c2nc(Cl)nc3ccsc23)c1 | –
22 | < 6.00 | < 6.00 | < 6.00 | < 6.00 | CN(c1ccccc1)c1nc(Cl)nc2ccsc12 | –
23 | 7.64 | 7.73 | 7.69 | 8.04 | COc1ccc(N(C)c2nc(Cl)nc3cc[nH]c23)cc1 | –
24 | < 6.00 | < 6.00 | < 6.00 | < 6.00 | COc1ccc(Nc2nc(Cl)nc3ccsc23)cc1 | –
25 | 6.65 | 6.85 | 6.41 | 7.33 | COc1cccc(N(C)c2nc(Cl)nc3ccsc23)c1 | –
26 | 7.13 | 7.27 | 6.92 | 7.63 | COc1ccc(N(C)c2nc(Cl)nc3c2ccn3C)cc1 | –
27 | < 6.00 | < 6.00 | < 6.00 | < 6.00 | CN(c1ccc(C(F)(F)F)cc1)c1nc(Cl)nc2ccsc12 | –
28 | < 6.00 | < 6.00 | < 6.00 | < 6.00 | COc1ccc(N(C)c2nc(N3CCN(C)CC3)nc3ccsc23)cc1 | –
29 | 6.92 | 7.28 | 6.62 | 7.50 | COc1c(F)cc(N(C)c2nc(Cl)nc3ccsc23)cc1F | –
30 | 8.14 | 8.07 | 8.06 | 8.23 | COc1ccc(N(C)c2nc(Cl)nc3ccsc23)cc1 | pKd (Tubulin): 4.53
31 | 6.65 | 6.65 | 6.23 | 7.41 | COc1ccc(N(C)c2nc(Cl)nc3[nH]ccc23)cc1 | –
32 | < 6.00 | < 6.00 | < 6.00 | < 6.00 | COc1ccc(Oc2nc(Cl)nc3ccsc23)cc1 | –
33 | 7.80 | 8.04 | 7.83 | 8.21 | COc1ccc(N(C)c2nc(C)nc3ccsc23)cc1 | –
34 | 6.92 | 6.95 | 6.68 | 7.04 | COc1ccc(N(C)c2nc(NC3CCC3)nc3ccsc23)cc1 | –
35 | 8.26 | 8.29 | 8.20 | 8.31 | COc1ccc(N(C)c2nc(Cl)nc3sccc23)cc1 | –
36 | 6.41 | 6.46 | 6.22 | 6.99 | CN(c1ccc(OC(F)(F)F)cc1)c1nc(Cl)nc2ccsc12 | –
37 | < 6.00 | < 6.00 | < 6.00 | < 6.00 | COc1cc(N(C)c2nc(Cl)nc3ccsc23)cc(OC)c1OC | –
38 | 8.33 | 8.65 | 8.29 | 8.57 | COc1ccc2c(c1)CCCN2c1nc(Cl)nc2ccsc12 | –

Row | Structure (SMILES) | pIC50 (A2780) | pIC50 (HCC827) | pIC50 (A549) | pIC50 (SK-OV-3 [1]) | other results
39 | COc1cc2c(c(OC)c1OC)-c1ccc(OC)c(=O)cc1[C@@H](NC(C)=O)CC2 [COLCHICINE] | 7.91 | 8.03 | – | 7.99 | Activity (SK-OV-3 [3]): 34.8%; Activity (SK-OV-3 [4]): 1.53%; Activity (SK-OV-3 [5]): 0.28%; Activity (SK-OV-3 [6]): 34.38%; Activity (SK-OV-3 [7]): 1.47%; Activity (SK-OV-3 [8]): 2.15%; pIC50 [2]: 6.30; viability at 0.005 µM (SK-OV-3 [9]): 96.2%; Activity (SK-OV-3 [10]): 0.38%; viability at 0.005 µM (SK-OV-3 [11]): 95.9%; Activity (SK-OV-3 [12]): 2.01%
40 | COc1ccc(/C=C\c2cc(OC)c(OC)c(OC)c2)cc1O [COMBRETASTATIN A4] | 8.67 | 8.65 | 8.59 | 8.85 | –
